The results in this text go back to the OligoGym collection.

The data set concerns the target APOL1. Conditions: ASO.

Values joined by “and” are separate entries in the source; they are usually repeats but may differ in a detail not shown here. Equal entries are not always repeated. After the bases stand the sugars from the 5' end (letter, count) and the backbone: PS all phosphorothioate, else s phosphorothioate and o phosphodiester by linkage. Methylation of C is not given here. e = 2'-O-(2-methoxyethyl) (MOE); k = constrained ethyl (cEt); d = 2'-deoxy (DNA)

With TCAATTTGTCAAGGCT (sugars k4 d9 k3, PS), the target mRNA inhibition by setting is: (A431, 0.0625 µM) 46% and 59%; (A431, 0.25 µM) 78% and 83%; (A431, 1 µM) 90% and 91%.
Regarding TTATGGAATTGCAGAT (sugars k4 d9 k3, PS), the target mRNA inhibition was 38% (A431, 0.0625 µM); 67% (A431, 0.25 µM); 86% (A431, 1 µM).
Sequence “TTCTATTAGAGGGCTA (sugars k3 d4 k3 e1 d5, PS)” came in with a target mRNA inhibition (A431, 2 µM) of 85%.
GTTTTTACAATAGTGC (sugars k4 d9 k3, PS): the target mRNA inhibition reads like this: (A431, 0.0625 µM) 74%; (A431, 0.25 µM) 91%; (A431, 1 µM) 96%.
Consider ATGAACGCAATGCTGA (sugars k4 d9 k3, PS), for which the target mRNA inhibition reads like this: (A431, 0.0625 µM) 52%; (A431, 0.25 µM) 76%; (A431, 1 µM) 92%.
As to “ATTCTCATGGTACAGG (sugars kekddddeekkddddd, PS)”, the target mRNA inhibition reads like this: (A431, 0.0156 µM) 0%; (A431, 0.0625 µM) 37%; (A431, 0.25 µM) 76%; (A431, 1 µM) 90%; (A431, 2 µM) 96%.
For “TTATGAAATTATTGGT (sugars kkkddddkekekdddd, PS)”, the target mRNA inhibition (A431, 2 µM) is 86%.
Regarding “GGCATTCAGAATTTCC (sugars kkkddddkekekdddd, PS)”, the target mRNA inhibition (A431, 2 µM) is 20%.
The same measure, in the same setting: with “CTTTAAACTCAGGTGA (sugars kkkddddkekekdddd, PS)” the figure was 40%.
Turning to GCTAAGTTCCGGTCTC (sugars k4 d9 k3, PS), the target mRNA inhibition was 50% (A431, 0.0625 µM); 74% (A431, 0.25 µM); 85% (A431, 1 µM).
As for “ACACATCATTGGGTTA (sugars kkkddddkekekdddd, PS)”, the target mRNA inhibition (A431, 2 µM) worked out at 32%.
Same read-out and setting: next, “GGTTATGAAATTATTG (sugars k2 d4 e3 k2 d5, PS)”: 61%.
For the sequence “CTTTATACCAGTGTCT (sugars kkdddddkekeddddd, PS)”, the target mRNA inhibition amounted to 14% (A431, 0.0156 µM); 41% (A431, 0.0625 µM); 74% (A431, 0.25 µM); 92% (A431, 1 µM); 97% (A431, 2 µM).
As to TACCGGGTAAGAGCGA (sugars k4 d9 k3, PS), the target mRNA inhibition runs as follows: (A431, 0.0625 µM) 32%; (A431, 0.25 µM) 64%; (A431, 1 µM) 78%.
“ATTCTCATGGTACAGG (sugars kddddkekekeddddd, PS)” had a target mRNA inhibition (A431, 2 µM) of 51%.
With “CTGAAGATTGGCTCTG (sugars k2 d4 e3 k2 d5, PS)”, the target mRNA inhibition (A431, 2 µM) was 54%.
As to “TTCTATTAGAGGGCTA (sugars kkdddddkekeddddd, PS)”, the target mRNA inhibition runs as follows: (A431, 0.0156 µM) 26%; (A431, 0.0625 µM) 56%; (A431, 0.25 µM) 81%; (A431, 1 µM) 92%; (A431, 2 µM) 94%.
Turning to “GTTCTAACTCTTGGGC (sugars kkddddkekekkdddd, PS)”, the target mRNA inhibition (A431, 2 µM) was found to be 52%.
Same read-out and setting: next, “ACGCAATGCTGACTTG (sugars kkddddkekekddddd, PS)”: 79%; “AATTCTATTAGAGGGC (sugars k3 d4 k3 e1 d5, PS)”: 70%.
On the same count and under the same terms, next, “TTATATTTGATCCTCA (sugars kdddddkekekddddd, PS)”: 82%; “CGTCAATATATTCTTT (sugars kkdddddkekeddddd, PS)”: 87%.
“TCAGATGGGTACTTCT (sugars kkdddddkekeddddd, PS)”: the target mRNA inhibition (A431, 2 µM) stood at 89%.
On the same count and under the same terms, next, “TCAGATGGGTACTTCT (sugars k3 d4 k3 e1 d5, PS)”: 82%.
For the sequence “GCTTTAAACTCAGGTG (sugars kkkddddkdkdkdddd, PS)”, the target mRNA inhibition (A431, 0.0156 µM) is 18%; the target mRNA inhibition (A431, 0.0625 µM) is 54%; the target mRNA inhibition (A431, 0.25 µM) came to 81%; the target mRNA inhibition (A431, 1 µM) came to 93%; the target mRNA inhibition (A431, 2 µM) is 93%.
For the sequence “AAGTATTGCCAGCTAA (sugars k3 d4 k3 e1 d5, PS)”, where the note is “A431, 2 µM”, the target mRNA inhibition worked out at 49%.
Sequence GCAATTTTATGGAACC (sugars k4 d9 k3, PS) displayed a target mRNA inhibition (A431, 0.04 µM) of 42% and a target mRNA inhibition (A431, 1 µM) of 91%.
For “CGCAATGCTGACTTGG (sugars k3 d4 k3 e1 d5, PS)”, the target mRNA inhibition was 34% (A431, 0.0156 µM); 50% (A431, 0.04 µM); 61% (A431, 0.0625 µM); 83% (A431, 0.25 µM); 92% (A431, 1 µM); 94% (A431, 2 µM).
